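How tested: cells in 96-well plates exposed to compound for 48 hours at five concentrations. TGI: total growth inhibition.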
What was measured:
Test in all cases: DTP human tumour cell line panel, 48 h
HL-60(TB) leukemia = test system: HL-60(TB) leukemia
LOX IMVI melanoma = test system: LOX IMVI melanoma
DLD-1 colon = test system: DLD-1 colon
SK-MEL-28 melanoma = test system: SK-MEL-28 melanoma
UO-31 renal = test system: UO-31 renal
SK-MEL-5 melanoma = test system: SK-MEL-5 melanoma
HCC-2998 colon = test system: HCC-2998 colon
SF-295 CNS = test system: SF-295 CNS
MALME-3M melanoma = test system: MALME-3M melanoma
TK-10 renal = test system: TK-10 renal
RXF 393 renal = test system: RXF 393 renal
HOP-62 NSCLC = test system: HOP-62 NSCLC
HOP-18 NSCLC = test system: HOP-18 NSCLC
SNB-19 CNS = test system: SNB-19 CNS
SNB-78 CNS = test system: SNB-78 CNS
UACC-257 melanoma = test system: UACC-257 melanoma
SK-MEL-2 melanoma = test system: SK-MEL-2 melanoma
A549 NSCLC = test system: A549 NSCLC
LXFL 529 NSCLC = test system: LXFL 529 NSCLC
OVCAR-8 ovarian = test system: OVCAR-8 ovarian
HOP-92 NSCLC = test system: HOP-92 NSCLC
M19-MEL melanoma = test system: M19-MEL melanoma
HT29 colon = test system: HT29 colon
SNB-75 CNS = test system: SNB-75 CNS
786-0 renal = test system: 786-0 renal
EKVX NSCLC = test system: EKVX NSCLC
NCI-H23 lung = test system: NCI-H23 lung
SF-268 CNS = test system: SF-268 CNS
KM12 colon = test system: KM12 colon
M14 melanoma = test system: M14 melanoma
SN12C renal = test system: SN12C renal
DMS 114 small cell lung = test system: DMS 114 small cell lung
NCI-H522 lung = test system: NCI-H522 lung
OVCAR-5 ovarian = test system: OVCAR-5 ovarian
NCI-H226 lung = test system: NCI-H226 lung
KM20L2 colon = test system: KM20L2 colon
SF-539 CNS = test system: SF-539 CNS
COLO 205 colon = test system: COLO 205 colon
SR leukemia = test system: SR leukemia
NCI-H460 lung = test system: NCI-H460 lung
U251 CNS = test system: U251 CNS
ACHN renal = test system: ACHN renal
CAKI-1 renal = test system: CAKI-1 renal
SW-620 colon = test system: SW-620 colon
DMS 273 small cell lung = test system: DMS 273 small cell lung
UACC-62 melanoma = test system: UACC-62 melanoma
CCRF-CEM leukemia = test system: CCRF-CEM leukemia
OVCAR-3 ovarian = test system: OVCAR-3 ovarian
IGROV1 ovarian = test system: IGROV1 ovarian
RPMI-8226 leukemia = test system: RPMI-8226 leukemia
SK-OV-3 ovarian = test system: SK-OV-3 ovarian
OVCAR-4 ovarian = test system: OVCAR-4 ovarian
MOLT-4 leukemia = test system: MOLT-4 leukemia
HCT-116 colon = test system: HCT-116 colon
A498 renal = test system: A498 renal
K-562 leukemia = test system: K-562 leukemia
HCT-15 colon = test system: HCT-15 colon
XF 498 CNS = test system: XF 498 CNS

Measured: TGI

COCC(O)CN1C(N)=NC(O)C1O (configuration not stated)
not listed: DMS 273 small cell lung | UACC-62 melanoma | CCRF-CEM leukemia | OVCAR-3 ovarian | IGROV1 ovarian | RPMI-8226 leukemia | SK-OV-3 ovarian | OVCAR-4 ovarian | MOLT-4 leukemia | HCT-116 colon | A498 renal | K-562 leukemia | HCT-15 colon | XF 498 CNS
> 100 µM: all other assays above

COC(=O)c1c(OC(=O)c2ccccc2)noc1CC(=O)OC1C=CCCC1 (configuration not stated)
81.7 µM: SK-MEL-5 melanoma
not listed: LOX IMVI melanoma | SF-295 CNS | HOP-92 NSCLC | M19-MEL melanoma | HT29 colon | EKVX NSCLC | NCI-H23 lung | OVCAR-5 ovarian | XF 498 CNS
> 100 µM: all other assays above

COc1ccccc1C1C(Cl)C(=O)N1NC(=O)Cc1ccccc1 (configuration not stated)
not listed: DLD-1 colon | HOP-92 NSCLC | SF-539 CNS | A498 renal
> 100 µM: all other assays above

O=c1c2ccccc2nc(-c2ccccc2Cl)n1NC1OC(CO)C(O)C(O)C1O (configuration not stated)
not listed: LOX IMVI melanoma | RXF 393 renal | SR leukemia
> 100 µM: all other assays above

Source: PubChem BioAssay (NCI)
